The target of data set [1] is T1, steroid 17α-hydroxylase and/or steroid C17-20 lyase (Rattus norvegicus, UniProt P11715).
T1 construct: the testis of rats (SD, male) was homogenized and centrifuged to obtain microsome; from tissue; host or cells: rat (SD, male) testis microsomes
T1 sequence (P11715 1-507): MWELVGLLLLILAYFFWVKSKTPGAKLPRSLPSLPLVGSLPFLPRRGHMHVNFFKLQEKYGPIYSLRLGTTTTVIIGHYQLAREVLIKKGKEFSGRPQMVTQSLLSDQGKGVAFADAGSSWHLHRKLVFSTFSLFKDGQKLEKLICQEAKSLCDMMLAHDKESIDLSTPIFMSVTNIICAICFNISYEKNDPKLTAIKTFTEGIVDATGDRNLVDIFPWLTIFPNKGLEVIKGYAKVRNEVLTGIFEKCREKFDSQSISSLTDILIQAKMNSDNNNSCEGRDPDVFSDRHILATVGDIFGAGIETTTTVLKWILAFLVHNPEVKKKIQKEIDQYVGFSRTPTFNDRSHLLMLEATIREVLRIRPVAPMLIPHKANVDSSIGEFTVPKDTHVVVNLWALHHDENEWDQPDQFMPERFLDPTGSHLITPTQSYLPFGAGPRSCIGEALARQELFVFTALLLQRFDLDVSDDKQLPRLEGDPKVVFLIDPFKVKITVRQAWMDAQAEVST
The data set is described as follows: Measurement of steroid 17α-hydroxylase and/or steroid C17-20 lyase inhibitory activity (rat testis microsome, HPLC). It counts as biochemical. The settings on record: Enzyme source: rat testis microsome; test compound 300 nM; substrate 25 μM 17α-hydroxyprogesterone; NADPH 500 μM; 20 minutes at 37° C. The protocol: An experiment was carried out according to the method of T. Sergejew and R. W. Hartmann (J. Enzyme Inhibition, 8, 113(1994)). That is, the testis of rats (SD, male) was homogenized and centrifuged to obtain microsome. […] After the addition of 100 μl of microsome protein solution, the protein contentration was adjusted to 0.1 mg/ml by 50 mM phosphate buffer solution (pH 7.4), 140 μl of 125 nmol NADPH solution, and 10 μl of 6.25 nmol 17α-hydroxyprogesterone, the mixture was incubated for 20 minutes at 37° C. 50 μl of 1N hydrochloric acid and 1000 μl of ethyl acetate were sequentially added to the mixture. The mixture was shaken and centrifuged. The ethyl acetate layer was washed with 250 μl of 50 mM phosphate buffer solution (pH 7.4) and 50 μl of 1N hydrochloric acid, centrifuged, and concentrated. The concentrate was dissolved in 100 μl of acetonitrile. 10 μl of this solution was charged to high performance liquid chromatography. The amounts of the substrate and the product (androstenedione and testosterone) were measured to calculate the enzyme activity. In this experiment, a sample without the test compound was provided as a control group. Steroid 17α-hydroxylase and/or steroid C17-20-lyase inhibitory activity (%) was calculated by the following equation (1) using the amounts of the substrate and the product obtained.

Here are results for eleven compounds from patent publication US20030130340A1, “Novel benzothiophene derivatives” (Daiichi Pharmaceutical Co. Ltd., priority 2000, published 2003).

Where a name gives a salt, the structure may show the parent alone.

For orientation: melting point means the temperature of the solid-liquid transition. As usually defined, the inhibition is the drop in the measured response relative to a control, in per cent. With `COc1ccc2c(-c3ccccn3)csc2c1.Cl` [Example 3, 2-[6-methoxybenzo[b]thiophen-3-yl]pyridine hydrochloride], the melting point is 205.5 to 207 °C (dec.). Testing at 0.3 µM in data set [1] gave an inhibition of 9%.

The compound `Oc1ccc2c(-c3ccncc3)csc2c1` [Example 6, 3-(4-pyridyl)benzo[b]thiophen-6-ol] displayed a melting point of 246 to 250 °C. This compound came in with an inhibition at 0.3 µM in data set [1] of 3%.

For `Oc1cccc(-c2ccc3c(-c4cccnc4)csc3c2)c1` [Example 17, 3-[3-(3-pyridyl)benzo[b]thiophen-6-yl]-phenol], the melting point is 188.5 to 189.5 °C. In data set [1], this compound had an inhibition at 0.3 µM of 100%.

In the case of `c1cncc(-c2ccc3c(-c4cccnc4)csc3c2)c1` [Example 20, 3-[6-(3-pyridyl)benzo[b]thiophen-3-yl]pyridine], the melting point fell in the range of 131.5 to 133 °C. The compound further came in with an inhibition at 0.3 µM in data set [1] of 100%.

Take `c1cncc(-c2csc3cc(C4CCCCC4)ccc23)c1` [Example 50, 3-(6-cyclohexylbenzo[b]thiophen-3-yl)pyridine hydrochloride]: in data set [1], 0.3 µM produced 80% inhibition.

Compound `CC(C)Oc1cccc(-c2ccc3c(-c4cccnc4)csc3c2)c1` [Example 51, 3-[6-(3-isopropyloxyphenyl)benzo[b]thiophen-3-yl]pyridine hydrochloride] showed an inhibition at 0.3 µM in data set [1] of 37%.

The compound `CCCc1ccc2c(-c3cccnc3)csc2c1` [Example 52, 3-(6-propylbenzo[b]thiophen-3-yl)pyridine hydrochloride] displayed an inhibition at 0.3 µM in data set [1] of 93%.

In data set [1], `O=[N+]([O-])c1cccc(-c2ccc3c(-c4cccnc4)csc3c2)c1` [Example 53, 3-[6-(3-nitrophenyl)benzo[b]thiophen-3-yl]pyridine] came in with an inhibition at 0.3 µM of 86%.

In data set [1], `CC(C)Nc1ccc2c(-c3cccnc3)csc2c1` [Example 54, isopropyl[3-(3-pyridyl)benzo[b]thiophen-6-yl]amine] displayed an inhibition at 0.3 µM of 98%.

On to `c1cncc(-c2csc3cc(N4CCOCC4)ccc23)c1` [Example 55, 4-[3-(3-pyridyl)benzo[b]thiophen-6-yl]morpholine dihydrochloride], for which at 0.3 µM the inhibition in data set [1] was 94%.

`CC(=O)Nc1ccc2c(-c3cccnc3)csc2c1` [Example 56, N1-[3-(3-pyridyl)benzo[b]thiophen-6-yl]acetamide] gave an inhibition at 0.3 µM in data set [1] of 63%.
